According to patent US4738954A, “Novel N^6 -substituted-5'-oxidized adenosine analogs” (Warner-Lambert Company, priority 1985, dated 1988):

Key:
adenosine A1 receptor = target: T1, adenosine A1 receptor (Rattus norvegicus, UniProt P25099); experiment: Adenosine Receptor Binding--A1 Receptor Affinity (RBA1), [3H]-CHA displacement; conditions: 1.0 nM [3H]-CHA, rat brain, 25° C, 1 h; read-out: RBA-1 (IC50, A1 receptor affinity)
T1 construct: Whole brain minus cerebellum and brainstem from male Long Evans rats; from tissue; host or cells: rat whole brain minus cerebellum and brainstem, membranes
T1 sequence (P25099 1-326): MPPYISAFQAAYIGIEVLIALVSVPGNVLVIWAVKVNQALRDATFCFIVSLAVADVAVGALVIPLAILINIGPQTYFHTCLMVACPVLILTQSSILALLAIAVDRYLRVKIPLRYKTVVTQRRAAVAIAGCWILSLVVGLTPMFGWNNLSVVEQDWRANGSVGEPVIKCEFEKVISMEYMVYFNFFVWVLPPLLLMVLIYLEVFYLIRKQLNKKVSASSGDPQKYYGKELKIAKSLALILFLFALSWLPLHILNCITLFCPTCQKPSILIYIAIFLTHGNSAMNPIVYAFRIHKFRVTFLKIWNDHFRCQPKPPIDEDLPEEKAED
Experimental: Adenosine Receptor Binding--A1 Receptor Affinity (RBA1)
Whole brain minus cerebellum and brainstem from male Long Evans rats (105-200 g) was homogenized in 30 volumes of ice-cold 0.05M Tris-HCl buffer pH 7.7 using a Brinkman Polytron PT-10, (setting number 6 for 20 seconds) and centrifuged for ten minutes at 20,000×g (Sorvall RC-2), 4° C. The supernatant was discarded, and the pellet was resuspended and centrifuged as before. The pellet was resuspended in 20 ml Tris-HCl buffer containing two International Units/ml of adenosine deaminase (Sigma type III from calf intestinal mucosa), incubated at 37° C. for 30 minutes, then subsequently at 0° C. for ten minutes. The homogenate was again centrifuged, and the final pellet was resuspended in ice-cold 0.05M Tris-HCl buffer pH 7.7 to a concentration of 20 mg/ml original wet tissue weight and used immediately.
Tissue homogenate (10 mg/ml) was incubated in 0.05M Tris-HCl buffer pH 7.7 containing 1.0 nM ((^3 H))-N^6 -cyclohexyladenosine ([^3 H]-CHA) with or without test agents in triplicate for one hour at 25° C. Incubation volume was 2 ml. Unbound [^3 H]-CHA was separated by rapid filtration under reduced pressure through Whatman glass fiber (GF/B) filters. The filters were rinsed three times with 5 ml of ice cold 0.05M Tris-HCl buffer pH 7.7. The radio-labeled ligand retained on the filter was measured by liquid scintillation spectrophotometry after shaking the filters for one hour or longer on a mechanical shaker in 10 ml of Beckman Ready-Solv HP scintillation cocktail.
Nonspecific binding was defined as the binding which occured in the presence of 1 mM theophylline. The concentration of test agent which inhibited 50% of the specific binding (IC50) was determined by nonlinear computer curve fit. The Scatchard plot was calculated by linear regression of the line obtained by plotting the amount of radioligand bound (pmoles/gram of tissue) versus [formula] Since the amount of radioligand bound was a small fraction of the total amount added, free radioligand was defined as the concentration of (nM) of radioligand added to the incubation mixture. The Hill coefficient was calculated by linear regression of the line obtained by plotting the log of the bound radioligand vs the log of the [formula] The maximal number of binding sites (Bmax) was calculated from the Scatchard plot.

[1] = test system: mice falling off the inverted screen; experiment: Mouse Activity and Screen Test Procedure (MAST): screen test; format: in vivo, Swiss-Webster male mice
Source text: The compounds of the invention are new chemical substances which are useful as pharmaceutical agents for the treatment of psychoses. The antipsychotic activity of representative compounds of the invention was established by the Mouse Activity and Screen Test Procedure (MAST) described below. Animals Nine unfasted Swiss-Webster male mice weighing 20-30 g are equally divided into three groups for each drug dose to be tested. That is, data for each dose level was generated by three separate groups of three mice each. Drugs A minimum of three dose levels (10, 30, and 100 mg/kg) are tested for each drug. Treatments are administered intraperitoneally one hour prior to testing. All dosages are calculated as parent compound and given in volumes of 10 ml/kg. Compounds are dissolved or suspended in 0.2% Methocel. Control animals are injected with Methocel. Testing: A two part testing procedure is started one hour postinjection. First, the screen test (ST) is performed (see Pharmac. Biochem. Behav. 6, 351-353, 1977). Briefly this test consists of placing mice on individual wire screens which are then rotated 180 degrees at the start of a 60 second observation period. The number of mice falling off the inverted screen is recorded. Data: The data obtained from the screen test are expressed as percent of mice falling off the screen. Data derived from locomotor activity of drug treated mice are compared to the activity of vehicle treated animals and are expressed as percent inhibition of spontaneous locomotion. All percentages reported for inhibition of locomotion (LI) are based upon data accumulated for one hour. Both phases of testing are graded: A=60-100%; C=31-59%; and N=0-30%. An overall dose rating is obtained by the following criteria: LAD refers to the lowest dose at which an A rating is achieved. […] Utilizing this procedure, an overall dose rating of A was obtained for the noted compound at the indicated dose. The compounds are identified in the Examples.

Compound | IC50 (adenosine A1 receptor) | Screen test failure ([1]; 0.01 mg/kg IP) | Screen test failure ([1]; 0.03 mg/kg IP) | Screen test failure ([1]; 0.1 mg/kg IP) | Screen test failure ([1]; 0.3 mg/kg IP) | Screen test failure ([1]; 1 mg/kg IP) | Screen test failure ([1]; 3 mg/kg IP) | Screen test failure ([1]; 10 mg/kg IP) | Screen test failure ([1]; 30 mg/kg IP)
CCNC(=O)[C@H]1O[C@@H](n2cnc3c(NCC(c4ccccc4)c4ccccc4)ncnc32)[C@H](O)[C@@H]1O [Example 3, N^6-(2,2-diphenylethyl)-adenosine-5'-ethylcarboxamide] | 16 nM |  |  | 0% | 0% | 0% | 0% | 11% | 33%
CCOC(=O)[C@H]1O[C@@H](n2cnc3c(NCC(c4ccccc4)c4ccccc4)ncnc32)[C@H](O)[C@@H]1O [Example 5, N6-(2,2-diphenylethyl)-5-adenosine-5'-ethylcarboxylate] | 291 nM |  |  |  |  |  | 11% | 0% | 0%
CCNC(=O)[C@H]1O[C@@H](n2cnc3c(NCc4cccc5ccccc45)ncnc32)[C@H](O)[C@@H]1O [Example 6, N-6-Naphthylmethyladenosine-5'-ethylcarboxamide] | 49 nM |  | 0% | 0% | 0% | 11% | 11% | 0% | 

Stronger by IC50 (adenosine A1 receptor), values ahead:

IC50 (adenosine A1 receptor) | Screen test failure ([1]; 0.01 mg/kg IP) | Screen test failure ([1]; 0.03 mg/kg IP) | Screen test failure ([1]; 0.1 mg/kg IP) | Screen test failure ([1]; 0.3 mg/kg IP) | Screen test failure ([1]; 1 mg/kg IP) | Screen test failure ([1]; 3 mg/kg IP) | Screen test failure ([1]; 10 mg/kg IP) | Screen test failure ([1]; 30 mg/kg IP) | Compound
4 nM |  |  |  |  |  |  |  |  | CCOC(=O)[C@H]1O[C@@H](n2cnc3c(NC4CC5CCC4C5)ncnc32)[C@H](O)[C@@H]1O (relative stereo) [Example 8, N-6-Norbornyl-adenosine-5'ethylcarboxylate]
2 nM | 0% | 0% | 33% | 11% | 33% | 88% | 100% | 100% | CCNC(=O)[C@H]1O[C@@H](n2cnc3c(N[C@H](C)Cc4ccccc4)ncnc32)[C@H](O)[C@@H]1O [Example 1, (R)-N-6-[(2-phenyl-1-methyl)ethyl]-adenosine-5'-ethylcarboxamide]
